From ChEMBL document CHEMBL1144330, “Novel pyrazinone mono-amides as potent and reversible caspase-3 inhibitors” (Bioorg Med Chem Lett, 2005)

Key:
NT2 = experiment: Inhibitory concentration against camptothecin induced apoptosis in neuronal precursor (NT2) whole cells; assay type: functional, cell-based; conditions: Homo sapiens
Caspase-8 = Caspase-8 (Homo sapiens, UniProt Q14790); experiment: Inhibitory concentration against recombinant human caspase-8 […]
Caspase-3 = molecular target: T1, Caspase-3 (Homo sapiens, UniProt P42574); experiment: Inhibitory concentration against recombinant human caspase-3 in neuronal precursor (NT2) cells
T1 sequence (P42574 whole entry): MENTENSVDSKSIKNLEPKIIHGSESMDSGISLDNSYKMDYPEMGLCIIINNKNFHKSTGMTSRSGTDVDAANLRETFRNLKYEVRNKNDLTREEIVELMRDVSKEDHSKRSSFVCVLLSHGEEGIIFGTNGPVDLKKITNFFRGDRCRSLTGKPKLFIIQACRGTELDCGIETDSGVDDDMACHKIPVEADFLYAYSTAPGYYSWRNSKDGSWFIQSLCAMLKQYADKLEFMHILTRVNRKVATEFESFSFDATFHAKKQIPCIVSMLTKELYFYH

Caspase-1 = molecular target: T2, Caspase-1 (Homo sapiens, UniProt P29466); experiment: Inhibitory concentration against recombinant human caspase-1 in neuronal precursor (NT2) cells
T2 sequence (P29466 whole entry): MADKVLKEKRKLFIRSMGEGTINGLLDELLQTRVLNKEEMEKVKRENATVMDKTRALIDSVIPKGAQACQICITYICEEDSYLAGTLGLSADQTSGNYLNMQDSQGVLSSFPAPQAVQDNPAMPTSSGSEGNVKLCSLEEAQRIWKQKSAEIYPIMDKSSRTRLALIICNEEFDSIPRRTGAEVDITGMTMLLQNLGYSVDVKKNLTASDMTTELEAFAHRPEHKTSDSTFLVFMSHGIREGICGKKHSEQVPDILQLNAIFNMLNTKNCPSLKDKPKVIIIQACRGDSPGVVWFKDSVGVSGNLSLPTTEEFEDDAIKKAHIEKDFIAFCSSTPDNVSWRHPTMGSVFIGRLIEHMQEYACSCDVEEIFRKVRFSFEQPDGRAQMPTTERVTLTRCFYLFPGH

Caspase-7 = molecular target: T3, Caspase-7 (Homo sapiens, UniProt P55210); experiment: Inhibitory concentration against recombinant human caspase-7 […]
T3 sequence (P55210 whole entry): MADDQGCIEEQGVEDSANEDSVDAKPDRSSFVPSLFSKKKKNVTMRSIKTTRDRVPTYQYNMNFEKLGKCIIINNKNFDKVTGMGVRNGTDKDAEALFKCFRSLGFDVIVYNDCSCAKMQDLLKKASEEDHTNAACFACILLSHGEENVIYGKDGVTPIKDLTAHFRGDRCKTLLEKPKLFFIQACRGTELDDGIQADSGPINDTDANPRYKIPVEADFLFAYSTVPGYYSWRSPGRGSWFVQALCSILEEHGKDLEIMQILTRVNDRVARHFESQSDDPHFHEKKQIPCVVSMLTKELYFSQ

Caspase-8, sequence (Q14790 217-374 limits assumed): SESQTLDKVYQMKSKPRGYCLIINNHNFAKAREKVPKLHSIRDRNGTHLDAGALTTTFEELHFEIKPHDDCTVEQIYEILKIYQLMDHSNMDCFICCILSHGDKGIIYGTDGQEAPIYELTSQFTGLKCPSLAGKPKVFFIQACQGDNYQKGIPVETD
Caspase-8, sequence (Q14790 385-479 limits assumed): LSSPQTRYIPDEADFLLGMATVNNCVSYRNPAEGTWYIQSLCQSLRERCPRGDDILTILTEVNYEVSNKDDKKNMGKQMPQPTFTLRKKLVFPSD

SMILES | IC50 (NT2) [µM] | IC50 (Caspase-8) [µM] | IC50 (Caspase-3) [µM] | IC50 (Caspase-1) [µM] | IC50 (Caspase-7) [µM]
CC[C@@H](C(=O)N[C@@H](CC(=O)O)C(=O)CSCc1ccccc1)n1cccc(NC(=O)[C@H](CC(=O)O)NC(C)=O)c1=O | 5.2 | 0.22 | 0.0003 | 0.06 | 0.01
CCC(C(=O)N[C@@H](CC(=O)O)C(C)=O)n1cc(C(C)(C)C)nc(NCc2nonc2C)c1=O (stereo not given in full) | 5.12 | 10 | 0.064 | 1.23 | 0.48
CCC(C(=O)N[C@@H](CC(=O)O)C(=O)CNCN1C2CCC1CC2)n1ccnc(NCc2nonc2C)c1=O (stereo not given in full) | 1.45 | 9.22 | 0.023 | 0.88 | 0.26
CCC(C(=O)N[C@@H](CC(=O)O)C(=O)CNCN1CCOCC1)n1cc(C(C)(C)C)nc(NCc2nonc2C)c1=O (stereo not given in full) | 8.62 | > 10 | 0.11 | 0.73 | 0.54
CCC(C(=O)N[C@@H](CC(=O)O)C(=O)c1ncc(-c2ccccc2)o1)n1ccnc(NCc2nonc2C)c1=O (stereo not given in full) | 8.39 | 9.57 | 0.063 | 0.46 | 0.75
CCC(C(=O)N[C@@H](CC(=O)O)C(=O)CCCc1ccccc1)n1cc(C(C)(C)C)nc(NCc2nonc2C)c1=O (stereo not given in full) | 1.38 | 5.28 | 0.014 | 5.13 | 0.14
CCC(C(=O)N[C@@H](CC(=O)O)C(=O)CNCN(C)C)n1ccnc(NCc2nonc2C)c1=O (stereo not given in full) | 2.64 | > 10 | 0.042 | 0.89 | 0.31
CCC(C(=O)N[C@@H](CC(=O)O)C(=O)CN[C@@H](C)c1ccccc1)n1ccnc(NCc2nonc2C)c1=O (stereo not given in full) | 1.2 | 9.26 | 0.014 | 0.064 | 1.04
CCOCN(C)CNCC(=O)[C@H](CC(=O)O)NC(=O)C(CC)n1ccnc(NCc2nonc2C)c1=O (stereo not given in full) | 3.99 | > 10 | 0.1 | 1.75 | 1.01
CCC(C(=O)N[C@@H](CC(=O)O)C(=O)CNCN(CC)CC)n1ccnc(NCc2nonc2C)c1=O (stereo not given in full) | 3.9 | > 10 | 0.12 | 1.14 | 3.24
CCCN(C)CNCC(=O)[C@H](CC(=O)O)NC(=O)C(CC)n1ccnc(NCc2nonc2C)c1=O (stereo not given in full) | 1.42 | > 10 | 0.017 | 0.62 | 0.32
CCC(C(=O)N[C@@H](CC(=O)O)C(=O)CNCN(C)CC)n1ccnc(NCc2nonc2C)c1=O (stereo not given in full) | 1.53 | > 10 | 0.026 | 0.056 | 0.54
CCC(C(=O)N[C@@H](CC(=O)O)C(=O)CNCN1CCc2ccccc2C1)n1ccnc(NCc2nonc2C)c1=O (stereo not given in full) | 1.25 | 7.38 | 0.013 | 0.013 | 0.083
CCC(C(=O)N[C@@H](CC(=O)O)C(=O)CSCc1ccccc1)n1ccnc(NCCc2nc(C)no2)c1=O (stereo not given in full) | 15.3 | 9.1 | 0.08 | 0.9 | > 10
CCC(C(=O)N[C@@H](CC(=O)O)C(=O)CSCc1ccccc1)n1ccnc(NCCCc2nc(C)no2)c1=O (stereo not given in full) | 7.1 | > 10 | 0.053 | 1.7 | 2.6
CCC(C(=O)N[C@@H](CC(=O)O)C(=O)CSCc1ccccc1)n1ccnc(NCc2ccon2)c1=O (stereo not given in full) | 8.56 | 2.9 | 0.046 | 0.4 | 5.17
CCC(C(=O)N[C@@H](CC(=O)O)C(=O)CNCN1Cc2ccccc2C1)n1ccnc(NCc2nonc2C)c1=O (stereo not given in full) | 1.52 | 4.29 | 0.014 | 0.0087 | 0.13
CCC(C(=O)N[C@@H](CC(=O)O)C(=O)CNCN1CCCC1)n1ccnc(NCc2nonc2C)c1=O (stereo not given in full) | 0.84 | 6.22 | 0.033 | 0.29 | 0.41
COc1ccc(S(C)(=O)=O)cc1CC(=O)N[C@H](C(=O)N[C@@H](CC(=O)O)C(=O)CSCc1ccccc1)C(C)C | 1 | 0.49 | 0.005 | 1.6 | 0.12
CCC(C(=O)N[C@@H](CC(=O)O)C(=O)CSCc1ccccc1)n1ccnc(NCc2nonc2C)c1=O (stereo not given in full) | 1.39 | 2.46 | 0.0079 | 0.22 | 0.73
CCC(C(=O)N[C@@H](CC(=O)O)C(=O)CNCN1CCC(Cc2ccccc2)CC1)n1ccnc(NCc2nonc2C)c1=O (stereo not given in full) | 1.62 | 6.02 | 0.056 | 0.047 | 0.84
CC(=O)N[C@@H](CC(=O)O)C(=O)N[C@@H](CCC(=O)O)C(=O)N[C@H](C(=O)N[C@@H](CC(=O)O)C(=O)CCCc1ccccc1)C(C)C | 30 | 0.016 | 0.0008 | 0.31 | 0.008

Stronger by IC50 (NT2), values ahead:

IC50 (NT2) [µM] | IC50 (Caspase-8) [µM] | IC50 (Caspase-3) [µM] | IC50 (Caspase-1) [µM] | IC50 (Caspase-7) [µM] | SMILES
0.15 | > 10 | 0.009 | 0.025 | 0.1 | CCCCCCCCN(C)CNCC(=O)[C@H](CC(=O)O)NC(=O)C(CC)n1ccnc(NCc2nonc2C)c1=O (stereo not given in full)
0.3 | > 10 | 0.015 | 0.031 | 0.13 | CCCCN(C)CNCC(=O)[C@H](CC(=O)O)NC(=O)C(CC)n1ccnc(NCc2nonc2C)c1=O (stereo not given in full)
0.0048 | 9.04 | 0.013 | 0.063 | 0.065 | CCCCCCN(C)CNCC(=O)[C@H](CC(=O)O)NC(=O)C(CC)n1cc(C(C)C)nc(NCc2nonc2C)c1=O (stereo not given in full)
0.0027 | 5.95 | 0.0001 | 0.11 | 0.036 | CCCCCN(C)CNCC(=O)[C@H](CC(=O)O)NC(=O)C(CC)n1cc(C(C)(C)C)nc(NCc2nonc2C)c1=O (stereo not given in full)
0.3 | > 10 | 0.013 | 0.048 | 0.11 | CCCCCN(C)CNCC(=O)[C@H](CC(=O)O)NC(=O)C(CC)n1ccnc(NCc2nonc2C)c1=O (stereo not given in full)
0.13 | > 10 | 0.011 | 0.028 | 0.14 | CCCCCCN(C)CNCC(=O)[C@H](CC(=O)O)NC(=O)C(CC)n1ccnc(NCc2nonc2C)c1=O (stereo not given in full)
0.021 | 6.48 | 0.006 | 0.067 | 0.042 | CCCCCCN(C)CNCC(=O)[C@H](CC(=O)O)NC(=O)C(CC)n1cc(C(C)(C)C)nc(NCc2nonc2C)c1=O (stereo not given in full)
0.025 | > 10 | 0.016 | 0.11 | 0.087 | CCCCCCN(C)CNCC(=O)[C@H](CC(=O)O)NC(=O)C(CC)n1cc(C(C)(CC)CC)nc(NCc2nonc2C)c1=O (stereo not given in full)
0.078 | 9.54 | 0.006 | 0.025 | 0.6 | CCCCCCN(C)CNCC(=O)[C@H](CC(=O)O)NC(=O)C(CC)n1cc(CC)nc(NCc2nonc2C)c1=O (stereo not given in full)
0.29 | > 10 | 0.021 | 0.62 | 0.13 | CCC(C(=O)N[C@@H](CC(=O)O)C(=O)CNCN1CCCCC1)n1cc(C(C)(C)C)nc(NCc2nonc2C)c1=O (stereo not given in full)
